# Data as given in US12421210B2, “Fused bicyclic heterocycles as therapeutic agents” (NEW YORK UNIVERSITY, priority 2018, dated 2025).
# Molecular target: human NAMPT enzyme (His-hNAMPT) (Homo sapiens (Human), UniProt P43490)
# Experiment: NAMPT enzymatic inhibition assay (fluorescence, NADH product)
# Assay type: biochemical
# Details: [BPS]; read-out: NAMPT IC50 (μM) [BPS]
# Protocol: The compounds were then diluted 20 fold in an intermediate dilution to 5% DMSO and water. Finally 10 μL of each compound was added to the assay plate, in duplicate, with highest concentration at 30 μM and the lowest at 0.001 μM in a final volume of 50 μL and 1% DMSO concentration. Each assay also tested, in parallel, two reference compounds, FK866 and GMX1778, with highest concentration at 10 μM and lowest at 0.0003 μM. 200 ng of human NAMPT enzyme (His-hNAMPT obtained from E. coli expression system) diluted in […] (tris-buffered saline-Polysorbate 20) 1× was added to each well in a volume of 10 μL and the compounds were incubated with the enzyme at room temperature for 20 minutes. After the incubation, 30 μL of master mixture were added to each well. The master mixture contained: 50 mM Tris-HCl, pH 8.0, 12.5 mM MgCl2, 20 μM nicotinamide, 40 μM phosphoribosyl pyrophosphate (PRPP), 20 μM adenosine triphosphate (ATP), 30 μg/mL of alcohol dehydrogenase, 10 μg/mL of NMNAT, 1.5% alcohol, 1 mM dithiothreitol (DTT), 0.02% bovine serum albumin (BSA), 0.01% Tween 20. The reaction was performed at 30° C. for 60 minutes. Fluorescence intensity was measured at an excitation of 340 nm and an emission of 460 nm using a Tecan Infinite M1000 microplate reader. The fluorescence values indicated increase of NADH product.
# Enzyme activity assay was performed in duplicate at each concentration. The fluorescence data was analyzed and compared. In the absence of the compound, the intensity (Ce) in each data set was defined as 100% activity. In the absence of enzyme, the intensity (C0) in each data set was defined as 0% activity. The percent activity in the presence of each compound was calculated according to the following equation: % activity=(C−C0)/(Ce−C0), where C is the fluorescence in the presence of the compound.
# The % activity vs. compound concentrations were then plotted using non-linear regression analysis of Sigmoidal dose-response curve generated with the equation Y=B+(T−B)/1+10^((Log EC50-X)×Hill Slope), where Y is percent activity, B is minimum percent activity, T is maximum percent activity, X is logarithm of compound and Hill Slope=slope factor or Hill coefficient.
# human NAMPT enzyme (His-hNAMPT), sequence (P43490 whole entry): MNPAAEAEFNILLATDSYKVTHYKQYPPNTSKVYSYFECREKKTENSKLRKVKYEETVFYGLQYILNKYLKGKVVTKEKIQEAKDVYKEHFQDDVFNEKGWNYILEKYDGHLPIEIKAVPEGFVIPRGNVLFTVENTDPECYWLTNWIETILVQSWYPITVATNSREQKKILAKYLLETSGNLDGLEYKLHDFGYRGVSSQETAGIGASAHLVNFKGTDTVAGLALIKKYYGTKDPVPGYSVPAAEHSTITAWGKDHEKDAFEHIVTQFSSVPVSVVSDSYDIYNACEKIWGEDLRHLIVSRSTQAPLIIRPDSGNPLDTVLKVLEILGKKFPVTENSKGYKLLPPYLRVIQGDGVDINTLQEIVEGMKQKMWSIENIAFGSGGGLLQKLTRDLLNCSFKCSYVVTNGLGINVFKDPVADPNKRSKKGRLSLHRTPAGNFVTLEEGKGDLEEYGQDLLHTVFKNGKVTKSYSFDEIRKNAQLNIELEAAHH
row,SMILES,IC50 [µM]
1,"CC1(OC(=O)N2C[C@@H]3[C@@H](CCNC(=O)/C=C/c4ccncc4)[C@@H]3C2)COC1 [Example 35, (1R,5S,6s)-3-methyloxetan-3-yl 6-(2-((E)-3-(pyridin-4-yl)acrylamido)ethyl)-3-azabicyclo[3.1.0]hexane-3-carboxylate]",1 to 29
2,"CC1(OC(=O)N2C[C@@H]3[C@@H](CCNC(=O)c4cc5cnccc5[nH]4)[C@@H]3C2)COC1 [Example 36, (1R,5S,6s)-3-methyloxetan-3-yl 6-(2-(1H-pyrrolo[3,2-c]pyridine-2-carboxamido)ethyl)-3-azabicyclo[3.1.0]hexane-3-carboxylate]",0.01 to 0.49
3,"CC1(OC(=O)N2C[C@@H]3[C@@H](CCNC(=O)c4cc5cnccc5s4)[C@@H]3C2)COC1 [Example 37, (1R,5S,6s)-3-methyloxetan-3-yl 6-(2-(thieno[3,2-c]pyridine-2-carboxamido)ethyl)-3-azabicyclo[3.1.0]hexane-3-carboxylate]",0.01 to 0.49
4,"CC1(OC(=O)N2C[C@@H]3[C@@H](CCNC(=O)c4ccc5nccn5c4)[C@@H]3C2)COC1 [Example 38, (1R,5S,6s)-3-methyloxetan-3-yl 6-(2-(imidazo[1,2-a]pyridine-6-carboxamido)ethyl)-3-azabicyclo[3.1.0]hexane-3-carboxylate]",0.01 to 0.49
5,"CC1(OC(=O)N2C[C@@H]3[C@@H](CCNC(=O)N4Cc5ccc(F)cc5C4)[C@@H]3C2)COC1 [Example 42, (1R,5S,6s)-3-methyloxetan-3-yl 6-(2-(5-fluoroisoindoline-2-carboxamido)ethyl)-3-azabicyclo[3.1.0]hexane-3-carboxylate]",0.01 to 0.49
6,"CC1(OC(=O)N2C[C@@H]3[C@@H](CCNC(=O)c4cnc5nccn5c4)[C@@H]3C2)COC1 [Example 43, (1R,5S,6s)-3-methyloxetan-3-yl 6-(2-(imidazo[1,2-a]pyrimidine-6-carboxamido)ethyl)-3-azabicyclo[3.1.0]hexane-3-carboxylate]",0.01 to 0.49
7,"CC1(OC(=O)N2C[C@@H]3[C@@H](CCNC(=O)c4ccc5ncsc5c4)[C@@H]3C2)COC1 [Example 44, (1R,5S,6s)-3-methyloxetan-3-yl 6-(2-(benzo[d]thiazole-6-carboxamido)ethyl)-3-azabicyclo[3.1.0]hexane-3-carboxylate]",0.01 to 0.49
8,"CC1(OC(=O)N2C[C@@H]3[C@@H](CCNC(=O)c4ccc5nc(N)sc5c4)[C@@H]3C2)COC1 [Example 49, (1R,5S,6s)-3-methyloxetan-3-yl 6-(2-(2-aminobenzo[d]thiazole-6-carboxamido)ethyl)-3-azabicyclo[3.1.0]hexane-3-carboxylate]",1 to 29
9,"CC1(OC(=O)N2C[C@@H]3[C@@H](CCNC(=O)c4cc(-c5cccnc5)on4)[C@@H]3C2)COC1 [Example 50, (1R,5S,6s)-3-methyloxetan-3-yl 6-(2-(5-(pyridin-3-yl)isoxazole-3-carboxamido)ethyl)-3-azabicyclo[3.1.0]hexane-3-carboxylate]",0.01 to 0.49
10,"CC1(OC(=O)N2C[C@@H]3[C@@H](CCNC(=O)c4cnc5[nH]ncc5c4)[C@@H]3C2)COC1 [Example 55, (1R,5S,6s)-3-methyloxetan-3-yl 6-(2-(1H-pyrazolo[3,4-b]pyridine-5-carboxamido)ethyl)-3-azabicyclo[3.1.0]hexane-3-carboxylate]",> 30
11,"CC(C)(C)NC(=O)N1C[C@@H]2[C@@H](CCNC(=O)c3cc4ccncc4o3)[C@@H]2C1 [Example 56, N-(2-((1R,5S,6s)-3-(tert-butylcarbamoyl)-3-azabicyclo[3.1.0]hexan-6-yl)ethyl)furo[2,3-c]pyridine-2-carboxamide]",0.01 to 0.49
12,"O=C(NCC[C@@H]1[C@H]2CN(C(=O)Nc3ccccc3)C[C@@H]12)c1cc2ccncc2o1 [Example 57, N-(2-((1R,5S,6s)-3-(phenylcarbamoyl)-3-azabicyclo[3.1.0]hexan-6-yl)ethyl)furo[2,3-c]pyridine-2-carboxamide]",0.01 to 0.49
13,"O=C(NCC[C@@H]1[C@H]2CN(C(=O)N3CCOCC3)C[C@@H]12)c1cc2ccncc2o1 [Example 58, N-(2-((1R,5S,6s)-3-(morpholine-4-carbonyl)-3-azabicyclo[3.1.0]hexan-6-yl)ethyl)furo[2,3-c]pyridine-2-carboxamide]",0.01 to 0.49

# Other lines, results leading:
row,IC50 [µM],SMILES
1,0.01 to 0.49,"Nc1ccc(/C=C/C(=O)NCC[C@@H]2[C@H]3CN(C(=O)N4CCCC4)C[C@@H]23)cn1 [Example 39, (E)-3-(6-aminopyridin-3-yl)-N-(2-((1R,5S,6s)-3-(pyrrolidine-1-carbonyl)-3-azabicyclo[3.1.0]hexan-6-yl)ethyl)acrylamide]"
2,0.01 to 0.49,"Nc1ccc(/C=C/C(=O)NCC[C@@H]2[C@H]3CN(C(=O)Oc4ccccc4)C[C@@H]23)cn1 [Example 40, (1R,5S,6s)-phenyl 6-(2-((E)-3-(6-aminopyridin-3-yl)acrylamido)ethyl)-3-azabicyclo[3.1.0]hexane-3-carboxylate]"
3,0.01 to 0.49,"Nc1ccc(/C=C/C(=O)NCC[C@@H]2[C@H]3CN(C(=O)OC4CCOCC4)C[C@@H]23)cn1 [Example 41, (1R,5S,6s)-tetrahydro-2H-pyran-4-yl 6-(2-((E)-3-(6-aminopyridin-3-yl)acrylamido)ethyl)-3-azabicyclo[3.1.0]hexane-3-carboxylate]"
4,0.01 to 0.49,"Nc1ccc(/C=C/C(=O)NCC[C@@H]2[C@H]3CN(S(=O)(=O)c4ccccc4)C[C@@H]23)cn1 [Example 45, (E)-3-(6-aminopyrdiin-3-yl)-N-(2-((1R,5S,6s)-3-(phenylsulfonyl)-3-azabicyclo[3.1.0]hexan-6-yl)ethyl)acrylamide]"
5,0.01 to 0.49,"Nc1ccc(/C=C/C(=O)NCC[C@@H]2[C@H]3CN(S(=O)(=O)c4ccc(F)cc4)C[C@@H]23)cn1 [Example 46, (E)-3-(6-aminopyridin-3-yl)-N-(2-((1R,5S,6s)-3-((4-fluorophenyl)sulfonyl)-3-azabicyclo[3.1.0]hexan-6-yl)ethyl)acrylamide]"
6,0.01 to 0.49,"Nc1ccc(/C=C/C(=O)NCC[C@@H]2[C@H]3CN(S(=O)(=O)C4CCOCC4)C[C@@H]23)cn1 [Example 47, (E)-3-(6-aminopyridin-3-yl)-N-(2-((1R,5S,6s)-3-((tetrahydro-2H-pyran-4-yl)sulfonyl)-3-azabicyclo[3.1.0]hexan-6-yl)ethyl)acrylamide]"
7,0.01 to 0.49,"Nc1ccc(/C=C/C(=O)NCC[C@@H]2[C@H]3CN(S(=O)(=O)C4CCCC4)C[C@@H]23)cn1 [Example 48, (E)-3-(6-aminopyridin-3-yl)-N-(-2 ((1R,5S,6s)-3-(cyclopentylsulfonyl)-3-azabicyclo[3.1.0]hexan-6-yl)ethyl)acrylamide]"
8,0.01 to 0.49,"Nc1ccc(/C=C/C(=O)NCC[C@@H]2[C@H]3CN(C(=O)OC4Cc5ccccc5C4)C[C@@H]23)cn1 [Example 51, (1R,5S,6s)-2,3-dihydro-1H-inden-2-yl 6-(2-((E)-3-(6-aminopyridin-3-yl)acrylamido)ethyl)-3-azabicyclo[3.1.0]hexane-3-carboxylate]"
9,0.01 to 0.49,"CN1CCC(OC(=O)N2C[C@@H]3[C@@H](CCNC(=O)/C=C/c4ccc(N)nc4)[C@@H]3C2)CC1 [Example 52, (1R,5S,6s)-(1-methylpiperidin)-4-yl 6-(2-((E)-3-(6-aminopyridin-3-yl)acrylamido)ethyl)-3-azabicyclo[3.1.0]hexane-3-carboxylate]"
10,1 to 29,"CC1(OC(=O)N2C[C@@H]3[C@@H](CCNC(=O)/C=C/c4cnc(N)nc4)[C@@H]3C2)COC1 [Example 54, (1R,5S,6s)-3-methyloxetan-3-yl 6-(2-((E)-3-(2-aminopyrimidin-5-yl)acrylamido)ethyl)-3-azabicyclo[3.1.0]hexane-3-carboxylate]"
